Experiments:
MDA-MB-231 = assay: Antiproliferative activity against human MDA-MB-231 cells assessed as reduction in cell growth incubated for 72 hrs by MTT assay; details: MDA-MB-231, 72 h
MDA-MB-453 = assay: Antiproliferative activity against human MDA-MB-453 cells assessed as reduction in cell growth incubated for 72 hrs by MTT assay; details: MDA-MB-453, 72 h
MDA-MB-468 = assay: Antiproliferative activity against human MDA-MB-468 cells assessed as reduction in cell growth incubated for 72 hrs by MTT assay; details: MDA-MB-468, 72 h

SMILES	IC50 (MDA-MB-231)	IC50 (MDA-MB-453)	IC50 (MDA-MB-468)
CC(c1ccc2ncccc2c1)n1nnc2ncc(N3CCN(CCC(=O)Nc4ccc(F)cc4N)CC3)nc21 (stereo unspecified)	22.7 µM	27.6 µM	9.15 µM
CC(c1ccc2ncccc2c1)n1nnc2ncc(N3CCN(Cc4ccc(C(=O)Nc5ccc(F)cc5N)cc4)CC3)nc21 (stereo unspecified)	5.91 µM	6.28 µM	4.11 µM
CC(c1ccc2ncccc2c1)n1nnc2ncc(N3CCN(CCC(=O)Nc4ccccc4N)CC3)nc21 (stereo unspecified)	30.4 µM	30.8 µM	21.9 µM
CC(c1ccc2ncccc2c1)n1nnc2ncc(N3CCN(Cc4ccc(C(=O)Nc5ccccc5N)cc4)CC3)nc21 (stereo unspecified)	15.3 µM	16 µM	12.8 µM
CC(c1ccc2ncccc2c1)n1nnc2ncc(N3CCN(CCCC(=O)Nc4ccccc4N)CC3)nc21 (stereo unspecified)	22.8 µM	22.9 µM	18.9 µM
CC(c1ccc2ncccc2c1)n1nnc2ncc(N3CCN(CC(=O)Nc4ccc(F)cc4N)CC3)nc21 (stereo unspecified)	18.4 µM	22.1 µM	12.2 µM
CC(c1ccc2ncccc2c1)n1nnc2ncc(N3CCN(CCCC(=O)Nc4ccc(F)cc4N)CC3)nc21 (stereo unspecified)	26.6 µM	31.1 µM	12.1 µM
